Patent US7335248B2, “Marine antifouling coating compositions” (Novus International, Inc., priority 2005, dated 2008)
Several values for one entry are separate records, joined by “and”; a condition that tells them apart may be missing. Equal values may be shown once. Read-outs that look alike come from different tables or passages of the source.

Legend:
barnacle cyprids = test: Barnacle cyprid settlement assay (method of Rittschof et al.), EC50 by probit analysis; assay type: in vivo, Balanus amphitrite amphitrite
Protocol: In this case, the defined effect is that the cyprids have not settled and have not attached to the Petri dish. Thus, in the attached data set, the “set” column indicates the total number of cyprid larvae that have settled and attached on the surface of the Petri dish and “non-set” indicates the total number of cyprids that remain swimming in the seawater and have not settled on the surface of the Petri dish.
Briefly, the barnacle adults are cultured in the laboratory and allowed to spawn naturally. The larvae are harvested and grown in artificial culture systems until they reach the cyprid stage at which time the larvae become competent to attach to surfaces. Once attached, the cyprids transform into a pinhead barnacle, thus becoming permanently attached to the surface. Rittschof D, Clare A S, Gerhart D J, Avelin Mary, Bonavetura J (1991) Barnacle in vitro assays for biologically active substances: toxicity and settlement assays using mass cultured Balanus amphitrite amphitrite Darwin. Biofouling (1992) 6:115-122.
(§1) Five replicates (e.g., a-e) for each concentration and the control were collected.

[1] = Solubility in seawater at the levels added in the cyprid assay; assay type: physicochemical; conditions: at the levels added (up to 0.1 mg/ml)
From the text: as §1

barnacles [2] = test: Six month static immersion fouling test of painted PVC panels (open ocean, Tuticorin, India); assay type: in vivo; conditions: for Total barnacle Count / Mean ± SD (barnacle count): 6 months; for Total barnacle Count: both duplicate panels; for Mean ± SD (barnacle count): four panel surfaces
From the text: The reported data were extracted from the raw data as described below, and are shown as total barnacle counts for both duplicate panels of each test formulation. In Table 4, the mean and standard deviation of the data derived from the four panels' surfaces of the duplicate panels for each group. The barnacle counts along the edges were not considered in this evaluation because of the expected uneven coating and inherent tendency of barnacles to first attach to edges. In addition, coatings along the edges can be easily damaged or uneven. Thus, for evaluation purposes only the coated surfaces of the flat areas were considered for this evaluation.
Zinc Omadine was used as the positive control for this series of tests. It is important to note here that fouling is continuous throughout the year at the Tuticorin, India site and the degree of settlement is generally the same for the same coating system.

barnacles [3] = test: Nine month static immersion testing in the Indian Ocean; assay type: in vivo; conditions: 9-month static immersion
From the text: Table 5 summarizes the anti-fouling data from the nine-month immersion test, performed as described above for the six month tests.

Oyster = conditions: 5%, 15 months, per panel side
From the text: (§2) HMTBA-Cu and HMTBA-Zn were supplied in powdered form by Novus International. […] The formulated paints were applied on PVC test panels (3 inch by 10 inch, ⅛ inch thickness), allowed to dry and shipped to a marine research center at Sacred Heart Marine Research Centre (SHMRC) in Tuticorin, India. The panels were mounted on frames on a floating platform in the open ocean and submerged totally under 3 ft of seawater for a period of 6 months, 9, or 12 months.
(§3) After the completion of the exposure period the panels were taken out of the seawater and transported to the shore laboratory in containers with seawater. The panels were evaluated by digital photography and physical examination of the coated surface. Barnacles were counted on the surface of the panels and along the edges. When there was substantial fouling on the surface, the area of the panel surface covered by barnacle fouling was estimated according to the methods described in ASTM D-3623. The panels were returned to the platform and again placed in total immersion. The panels were out of seawater during the examination for no more than 10 minutes.

Tube-worms = conditions: CuSP paint; 5%; 15 months; per panel side; nitrate trihydrate
From the text: as §2, §3

barnacles [4] = conditions: 5%, 15 months, per panel side
From the text: as §2, §3

[5] = 1e-4 mg/ml, Total of five replicates
[6] = 0.001 mg/ml, Total of five replicates
[7] = 0.01 mg/ml, Total of five replicates
[8] = 0.1 mg/ml, Total of five replicates

SMILES: CSCCC(O)C(=O)[O-].CSCCC(O)C(=O)[O-].[Zn+2] (stereo not shown) [HMTBA-Zn, zinc 2-hydroxy-4-methylthiobutanoate chelate]
- % of set (barnacle cyprids; [5]): 61%
- Non set (barnacle cyprids; [5]): 122
- Set (barnacle cyprids; [5]): 191
- % of set (barnacle cyprids; 1e-4 mg/ml, single replicate): 57% and 60% (2×) and 77% and 55%
- Non set (barnacle cyprids; 1e-4 mg/ml, single replicate): 28 and 21 and 12 and 25 and 36
- Set (barnacle cyprids; 1e-4 mg/ml, single replicate): 37 and 31 and 41 and 38 and 44
- % of set (barnacle cyprids; [6]): 58%
- Non set (barnacle cyprids; [6]): 135
- Set (barnacle cyprids; [6]): 187
- % of set (barnacle cyprids; 0.001 mg/ml, single replicate): 62% and 78% and 69% and 41% and 42%
- Non set (barnacle cyprids; 0.001 mg/ml, single replicate): 30 and 14 and 16 and 38 and 37
- Set (barnacle cyprids; 0.001 mg/ml, single replicate): 49 (2×) and 36 and 26 and 27
- appearance and swimming behavior of cyprids (barnacle cyprids; 0.01 mg/ml and higher (so in the source)): no adverse effects
- % of set (barnacle cyprids; [7]): 32%
- Non set (barnacle cyprids; [7]): 207
- Set (barnacle cyprids; [7]): 99
- % of set (barnacle cyprids; 0.01 mg/ml, single replicate): 30% and 26% and 40% and 32% and 35%
- Non set (barnacle cyprids; 0.01 mg/ml, single replicate): 49 and 54 and 44 and 34 and 26
- Set (barnacle cyprids; 0.01 mg/ml, single replicate): 21 and 19 and 29 and 16 and 14
- toxic effects on the cyprids (barnacle cyprids; 0.1 mg per ml): death of all cyprids
- % of set (barnacle cyprids; [8]): 0%
- Non set (barnacle cyprids; [8]): 346
- Set (barnacle cyprids; [8]): 0
- % of set (barnacle cyprids; 0.1 mg/ml, single replicate): 0%
- Non set (barnacle cyprids; 0.1 mg/ml, single replicate): 92 and 69 and 63 and 58 and 64
- Set (barnacle cyprids; 0.1 mg/ml, single replicate): 0
- EC50 (barnacle cyprids; barnacle cyprids not settled/attached to Petri dish, probit analysis): 5.7 µg/mL
- inhibition of barnacle cyprid settlement (barnacle cyprids; in vivo): biologically active as inhibitors of barnacle cyprid settlement
- SLOPE (barnacle cyprids; probit analysis, barnacle settlement): 1.564
- NO. RESPONDING (barnacle cyprids; probit data as input, DOSE .00001): 97
- solubility in seawater [1]: soluble in seawater at the levels added
- Total barnacle Count (barnacles [2]; CUAB coating, 1% (w/w)): 123
- Mean ± SD (barnacle count) (barnacles [2]; CUAB coating, 1% (w/w)): 30.8 ± 11.6
- Total barnacle Count (barnacles [2]; CUAB coating, 3% (w/w)): 52
- Mean ± SD (barnacle count) (barnacles [2]; CUAB coating, 3% (w/w)): 13.0 ± 10.7
- Total barnacle Count (barnacles [2]; CUAB coating, 5% (w/w)): 1
- Mean ± SD (barnacle count) (barnacles [2]; CUAB coating, 5% (w/w)): 0.3 ± 0.4
- Total barnacle Count (barnacles [2]; CUAB coating, 10% (w/w)): 101
- Mean ± SD (barnacle count) (barnacles [2]; CUAB coating, 10% (w/w)): 25.3 ± 2.9
- Total barnacle Count (barnacles [2]; CUSP coating, 1% (w/w)): 1
- Mean ± SD (barnacle count) (barnacles [2]; CUSP coating, 1% (w/w)): 0.3 ± 0.4
- Total barnacle Count (barnacles [2]; CUSP coating, 3% (w/w)): 0
- Mean ± SD (barnacle count) (barnacles [2]; CUSP coating, 3% (w/w)): 0
- Total barnacle Count (barnacles [2]; CUSP coating, 5% (w/w)): 0
- Mean ± SD (barnacle count) (barnacles [2]; CUSP coating, 5% (w/w)): 0
- Total barnacle Count (barnacles [2]; CUSP coating, 10% (w/w)): 2
- Mean ± SD (barnacle count) (barnacles [2]; CUSP coating, 10% (w/w)): 0.5 ± 0.9
- Total barnacle Count (barnacles [2]; MFAB coating, 1% (w/w)): 0
- Mean ± SD (barnacle count) (barnacles [2]; MFAB coating, 1% (w/w)): 0
- Total barnacle Count (barnacles [2]; MFAB coating, 3% (w/w)): 3
- Mean ± SD (barnacle count) (barnacles [2]; MFAB coating, 3% (w/w)): 0.8 ± 1.3
- Total barnacle Count (barnacles [2]; MFAB coating, 5% (w/w)): 1
- Mean ± SD (barnacle count) (barnacles [2]; MFAB coating, 5% (w/w)): 0.3 ± 0.4
- Total barnacle Count (barnacles [2]; MFAB coating, 10% (w/w)): 7
- Mean ± SD (barnacle count) (barnacles [2]; MFAB coating, 10% (w/w)): 1.8 ± 1.3
- comparative performance (barnacles [2]; copper ablative coatings, 5%, six months): outperformed
- efficacy / barnacle settlement (barnacles [2]; copper self-polishing and metal-free ablative coatings, six months of exposure): significant efficacy
- LS MEAN BARNACLES (barnacles [3]; CUSP PAINT): 3
- LS MEAN BARNACLES (barnacles [3]; MFAB PAINT): 1.5

SMILES: O.O.O.O=[N+]([O-])[O-].O=[N+]([O-])[O-].[Cu+2] [Copper (II) Nitrate trihydrate, copper (II) nitrate trihydrate]
- No. of Oyster (Oyster; CuAB paint): 1
- No. of Oyster (Oyster; CuSP paint): 2
- No. of Tube-worms (Tube-worms): 2 and 1
- edge No of Barnacles (barnacles [4]; CuAB paint): 3
- Maximum diameter in mm (barnacles [4]; CuAB paint, nitrate trihydrate): 10 mm and 11 mm and 9 mm
- No. of barnacles on the coated surface (barnacles [4]; CuSP paint): 84
- % of the surface with barnacles fouling (barnacles [4]; CuSP paint, nitrate trihydrate): 50% and 40% and 60%
- Maximum diameter in mm (barnacles [4]; CuSP paint, nitrate trihydrate): 10 mm and 11 mm
